Source: patent US20040038428A1, “Protein microarrays” (priority 2000, published 2004)
No end group written: not given here.

Key:
FKBP12 = FKBP12 (Homo sapiens, UniProt P62942); conditions: read-out: dissociation constants for FKBP12; cited from earlier work
p42 MAP kinase (Erk2) = target: T1, p42 MAP kinase (Erk2) (Mus musculus, UniProt P63085); test: kinase substrate screen on BSA-NHS slides with 33P-γ-ATP, Erk2; type: biochemical; conditions: slide incubated with Erk2
T1 construct: purchased New England Biolabs (Beverly, Mass.)
T1 sequence (P63085 2-358 limits assumed): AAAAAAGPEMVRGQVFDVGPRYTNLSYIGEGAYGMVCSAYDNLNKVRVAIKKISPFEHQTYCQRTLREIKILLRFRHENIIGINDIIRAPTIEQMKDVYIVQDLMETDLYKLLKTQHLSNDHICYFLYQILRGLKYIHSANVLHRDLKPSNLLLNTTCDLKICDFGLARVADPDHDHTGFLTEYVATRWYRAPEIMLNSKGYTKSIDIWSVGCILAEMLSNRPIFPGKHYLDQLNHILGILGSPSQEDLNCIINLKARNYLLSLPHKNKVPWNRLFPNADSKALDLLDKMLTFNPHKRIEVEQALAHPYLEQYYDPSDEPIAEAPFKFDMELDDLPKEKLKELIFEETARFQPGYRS
Experimental: (§1) To give but one example, most signal transduction networks are composed of numerous kinases and the proteins that they phosphorylate. Protein microarrays offer an ideal system for the rapid and parallel identification of the substrates of protein kinases. A microarray of proteins can be incubated with a purified kinase in the presence of ATP, and the substrates identified by detecting their phosphorylation. In but one exemplary system, three different kinase/substrate pairs were chosen: cAMP-dependent protein kinase (PKA) and “Kemptide” (a peptide substrate for PKA) (Kemp et al. J. Biol. Chem. 252:4888-4894, 1977; incorporated herein by reference); casein kinase II (CKII) and protein phosphatase inhibitor 2 (I-2) (DePaoli-Roach J. Biol. Chem. 259:12144-12152, 1984; incorporated herein by reference); and p42 MAP kinase (Erk2) and Elk1 (Marais et al. Cell 73:381-393, 1993; incorporated herein by reference). […] Following a three-hour incubation, each slide was quenched with glycine and incubated with a different kinase in the presence of ^33P-γ-ATP (FIG. 3). […]
(§2) The slide in FIG. 3A was incubated with PKA. […] Since isotopic […] is known to be quantitative, the best substrates in a library of peptides can be readily identified. […]
(§3) For FIG. 3, the proteins were spotted on BSA-NHS slides using a GMS 417 Arrayer. […] The slides were then ready for further processing (see below). […]

[1] = tested on: 5-helix (portion of the HIV protein gp41); conditions: rank among the three peptides; cited from earlier work
[2] = target: T2, cAMP-dependent protein kinase (PKA) (Mus musculus, UniProt P05132); test: kinase substrate screen on BSA-NHS slides with 33P-γ-ATP, PKA; type: biochemical; conditions: slide incubated with PKA
T2 construct: purchased New England Biolabs (Beverly, Mass.)
Experimental: as §1, §2, §3

casein kinase II (CKII) = target: T3, casein kinase II (CKII) (Homo sapiens, UniProt P68400); test: kinase substrate screen on BSA-NHS slides with 33P-γ-ATP, CKII; type: biochemical; conditions: slide incubated with CKII
T3 construct: purchased New England Biolabs (Beverly, Mass.)
T3 sequence (P68400 whole entry): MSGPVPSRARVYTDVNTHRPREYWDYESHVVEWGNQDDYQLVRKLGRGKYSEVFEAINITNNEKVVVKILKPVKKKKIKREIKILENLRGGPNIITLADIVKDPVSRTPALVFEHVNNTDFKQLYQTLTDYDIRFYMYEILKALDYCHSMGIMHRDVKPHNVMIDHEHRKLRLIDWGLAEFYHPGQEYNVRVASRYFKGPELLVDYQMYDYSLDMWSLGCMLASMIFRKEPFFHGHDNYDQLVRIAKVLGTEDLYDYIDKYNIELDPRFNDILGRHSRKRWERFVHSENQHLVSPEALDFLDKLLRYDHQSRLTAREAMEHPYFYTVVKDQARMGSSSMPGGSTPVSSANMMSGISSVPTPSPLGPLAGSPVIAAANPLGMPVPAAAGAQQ
T3 sequence (P67870 whole entry partner): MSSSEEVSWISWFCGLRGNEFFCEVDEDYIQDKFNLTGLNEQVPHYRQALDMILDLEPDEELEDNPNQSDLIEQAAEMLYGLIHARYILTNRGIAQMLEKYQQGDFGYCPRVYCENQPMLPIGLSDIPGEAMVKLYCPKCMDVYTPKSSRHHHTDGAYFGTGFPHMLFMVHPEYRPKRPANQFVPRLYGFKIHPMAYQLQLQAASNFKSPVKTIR
Experimental: as §1, §2, §3

[3] = target: T4, p50 (of the NFκB complex) (Homo sapiens, UniProt P19838); test: protein microarray: protein-protein interaction, p50 spots; type: binding; conditions: probe 0.1 μg/ml
T4 construct: p50 (of the NFκB complex) and IκBα
T4 sequence (P19838 1-433 limits assumed): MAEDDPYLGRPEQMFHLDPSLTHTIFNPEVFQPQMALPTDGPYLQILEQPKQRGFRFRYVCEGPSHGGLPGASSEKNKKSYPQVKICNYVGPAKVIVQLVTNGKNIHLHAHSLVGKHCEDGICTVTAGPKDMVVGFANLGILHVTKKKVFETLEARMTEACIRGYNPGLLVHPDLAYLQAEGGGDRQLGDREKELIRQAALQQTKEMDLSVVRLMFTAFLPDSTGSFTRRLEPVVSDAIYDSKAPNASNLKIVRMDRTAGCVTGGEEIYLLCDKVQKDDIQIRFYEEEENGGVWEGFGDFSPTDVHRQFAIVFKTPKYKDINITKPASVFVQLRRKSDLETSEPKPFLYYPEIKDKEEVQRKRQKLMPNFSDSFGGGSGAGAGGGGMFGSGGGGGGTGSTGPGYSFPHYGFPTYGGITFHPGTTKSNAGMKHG
From the text: Arraying Proteins on Glass Slides.
Screening for Protein-Protein Interactions.

Sequence of FKBP12 (P62942 whole entry): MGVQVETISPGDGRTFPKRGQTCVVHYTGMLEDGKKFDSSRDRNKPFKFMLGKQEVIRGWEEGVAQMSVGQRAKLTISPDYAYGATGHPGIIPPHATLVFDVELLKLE

COc1ccc(CC[C@@H](OC(=O)[C@@H]2CCCCN2C(=O)Cc2ccccc2)c2cccc(OCC(=O)O)c2)cc1OC [Compound 3c]
Kd (FKBP12): 2600 nM

Elk1: protein substrate of p42 MAP kinase (Erk2)
phosphorylation of spotted substrate (p42 MAP kinase (Erk2)): phosphorylated

GGHTTWMEADREINNYTSLIHSLIEESQNQQEKNEQELL [JN-DCC2, peptide ligand for 5-helix]
relative affinity for 5-helix [1]: lowest affinity

GGHTTWMELDREINNYTSLIHSLIEESQNQQEKNEQELL [JN-DCC1, peptide ligand for 5-helix]
relative affinity for 5-helix [1]: second highest affinity

GGHTTWMEWDREINNYTSLIHSLIEESQNQQEKNEQELLGGHHHHHH [Compound C37-H6, peptide ligand for 5-helix]
relative affinity for 5-helix [1]: highest affinity

LRRASLG [Kemptide]
phosphorylation of spotted substrate [2]: phosphorylated

B1: I-2: protein phosphatase inhibitor 2, substrate of casein kinase II (protein, UniProt P41236 2-205, looked up)
Protein phosphatase inhibitor …: AASTASHRPIKGILKNKTSTTSSMVASAEQPRGNVDEELSKKSQKWDEMNILATYHPADKDYGLMKIDEPSTPYHSMMGDDEDACSDTEATEAMAPDILARKLAAAEGLEPKYRIQEQESSGEEDSDLSPEEREKKRQFEMKRKLHYNEGLNIKLARQLISKDLHDDDEDEEMLETADGESMNTEESNQGSTPSDQQQNKLRSS
phosphorylation of spotted substrate (casein kinase II (CKII)): phosphorylated

B2: Cy3-conjugated IκBα: IκBα labeled with Cy3 (protein, UniProt P25963 1-317, looked up)
NF-kappa-B inhibitor alpha: MFQAAERPQEWAMEGPRDGLKKERLLDDRHDSGLDSMKDEEYEQMVKELQEIRLEPQEVPRGSEPWKQQLTEDGDSFLHLAIIHEEKALTMEVIRQVKGDLAFLNFQNNLQQTPLHLAVITNQPEIAEALLGAGCDPELRDFRGNTPLHLACEQGCLASVGVLTQSCTTPHLHSILKATNYNGHTCLHLASIHGYLGIVELLVSLGADVNAQEPCNGRTALHLAVDLQNPDLVSLLLKCGADVNRVTYQGYSPYQLTWGRPSTRIQQQLGQLTLENLQMLPESEDEESYDTESEFTEFTEDELPYDDCVFGGQRLTL
modifications: Cy3 label
localization of Cy3 fluorescence on array of protein G, p50 and GST-FRB [3]: localized to the p50-containing spots
